{"source": "patent US9828630B2", "about": "“Methods of enhancing genetic diagnosis” (BioLamina AB, priority 2011, dated 2017)", "key": {"[1]": {"system": "ES cells", "experiment": "Embryoid body formation", "format": "cell-based, human", "settings": "cells cultured on LN-521, all three cases", "description": "ES cells from LN-521 coated cell culture dishes were exposed to TrypLE™ Select for one minute at 37° C., 5% CO2, washes two times with a medium, broken into large pieces and cultured in suspension in low adhesion plates. The medium used for this was Knockout DMEM (GIBCO Invitrogen Corporation) supplemented with 2 mM L-glutamine, 20% fetal calf serum (GIBCO Invitrogen Corporation), 0.1 mM β-mercaptoethanol (GIBCO Invitrogen Corporation) and 1% non-essential amino acids (GIBCO Invitrogen Corporation). After 1-2 weeks in suspension, the embryoid bodies were transferred onto gelatin coated tissue cell culture 96-well plates (Sarstedt), cultured for 1-2 weeks, then fixed, stained with antibodies against markers of all three embryonic germ line layers (smooth muscle actin, MAP-2 and α-fetoprotein) and analyzed as described above for immunofluorescence."}, "[2]": {"system": "hES cell lines", "experiment": "Karyotyping", "format": "cell-based, human", "settings": "HS181 12 and H1 10 passages in O3; H1 7 passages in TeSR2", "description": "Karyotyping of the cell lines was carried out using standard Q-banding techniques. Samples of cells were treated with colcemid KaryoMAX (0.1 μg/ml; Gibco Invitrogen Corporation) for up to 4 hours, followed by dissociation with Trypsin/EDTA solution (Gibco Invitrogen Corporation). The cells were pelleted via centrifugation and re-suspended in pre-warmed 0.0375M KCl hypotonic solution and incubated for 10 minutes. Following centrifugation, the cells were resuspended in fixative (3:1 methanol:acetic acid). Metaphase spreads were prepared on glass microscope slides and G-banded by brief exposure to trypsin and stained with 4:1 Gurr's/Leishmann's stain (Sigma-Aldrich Co.). A minimum of 10 metaphase spreads were analyzed and additional 20 were counted."}, "[3]": {"system": "OCT4", "experiment": "FACS analysis for OCT4", "format": "cell-based, human", "settings": "after several single cell suspension passages, O3 medium, FIG. 9 and 10", "description": "OCT4 expression was analyzed as described in Ludwig, T. E. et al. Derivation of human embryonic stem cells in defined conditions. Nat. Biotechnol. 24, 185-187 (2006). Cells were run on FACSCalibur Flow Cytometer (Becton Dickinson). Data were analyzed with CellQuest software (Becton Dickinson)."}, "[4]": {"system": "human ES cells", "experiment": "Cell survival assay, 24 hours (1 day) after plating from single cell suspension", "format": "cell-based", "settings": "for adhesion / survival without additives compared with ROCK inhibitor treated cells: 1 day (24 hours) after plating; for survival / attachment of dissociated hES cells 24 hours (one day) after plating: single cell suspension, O3 medium", "description": "(§1) The assay was performed as described (Extracellular Matrix Protocols, 2000). Briefly, 96-well plates were coated by extracellular matrix proteins as described above and blocked by O3 medium containing bovine serum albumin. The ES cells were plated at a cell density of 600 cell/mm^2 upon extracellular matrix-coated plates and were left to adhere for either 1 hour or 1 day at the cell incubator. Non-adherent cells were washed away, and adherent cells were fixed for 20 min by 5% glutaraldehyde, stained by 0.1% Crystal Violet.\nThe survival assay was performed as described for the cell adhesion assay above, except that the cells were left in the cell incubator for 24 hours. For inhibition of survival assay, the cells were kept in a medium with function blocking antibodies at the concentrations recommended by the manufacturer or pathway inhibitors at concentrations indicated in the text for 30 minutes, and then plated on the coated dishes. All the experiments were performed in quadruplicate.\nPluripotent hES cells express α1, α5, β1, β2 and γ1 laminin chains. To compare the adhesion and clonal survival of hES cells plated from single cell suspension to different coating substrata, hES cells growing as monolayers on LN-511 or as clusters on a feeder layer were trypsinized into single cell suspension in O3 medium and plated on cell culture dishes coated with Matrigel, LN-111, LN-511, LN-521 or a mixture of LN-511 and LN-521, in the absence or presence of a ROCK inhibitor (Y-27632) and analyzed after 24 hours."}, "[5]": {"system": "human ES cells", "experiment": "Cell adhesion assay, 1 hour after plating on coated plates", "format": "cell-based", "description": "as §1\nBriefly, 96-well plates were coated by extracellular matrix proteins as described above and blocked by O3 medium containing bovine serum albumin. The ES cells were plated at cell density of 50,000 cells/cm^2 onto extracellular matrix-coated plates and left to adhere for 1 hour in a cell incubator. After that the plates were washed 3 times with the medium to remove the non-adherent cells, and then the adherent cells were fixed for 20 minutes by 5% glutaraldehyde, stained by 0.1% Crystal Violet. (Kebo Lab, Spanga, Sweden, http://www.kebolab.se). After one hour and 3 washes with water, Crystal Violet was extracted with 10% acetic acid and quantified by measuring optical density at 570 nm. All the experiments were performed in quadruplicate."}}}
{"substance": "LN-521: protein formed by joining laminin α5, β2 and γ1 chains; human recombinant, produced in HEK293 cells", "values": [{"measurement": "embryoid body formation with markers of mesoderm, ectoderm and endoderm", "setting": "[1]", "result": "retained the competence to form embryoid bodies"}, {"measurement": "karyotype", "setting": "[2]", "result": "normal"}, {"measurement": "percentage of Oct4 positive (pluripotent) cells compared with Matrigel", "setting": "[3]", "result": "much higher percentage"}, {"measurement": "adhesion / survival without additives compared with ROCK inhibitor treated cells", "setting": "[4]", "result": "similar"}, {"measurement": "adhesion / survival without additives compared with ROCK inhibitor treated cells", "setting": "[4]; listed as LN-532", "result": "no ROCK inhibitor is necessary"}, {"measurement": "survival of cells compared with LN-511", "setting": "[4]; 24 hours, no ROCK inhibitor", "result": "significantly higher"}, {"measurement": "cell shape 24 hours after plating on LN-521", "setting": "[4]; absence or presence of ROCK inhibitor", "result": "round"}, {"measurement": "survival relative to Matrigel", "setting": "[4]; exogenous bFGF removed from the O3 medium", "result": 20, "unit": "times"}, {"measurement": "survival 24 hours after plating", "setting": "[4]; medium lacking all growth factors of the TeSR1 formulation (bFGF, LiCl, GABA, pipecolic acid, TGFβ)", "result": "survived"}, {"measurement": "survival after 24 hours relative to LN-511", "setting": "[4]; no ROCK inhibitor", "result": "three"}, {"measurement": "survival / attachment of dissociated hES cells 24 hours (one day) after plating", "setting": "[4]; no ROCK inhibitor", "result": "did so as single cells"}, {"measurement": "survival / attachment of dissociated hES cells 24 hours (one day) after plating", "setting": "[4]; no ROCK inhibitor, listed as human r-laminin-521", "result": "survived"}, {"measurement": "survival / attachment of dissociated hES cells 24 hours (one day) after plating", "setting": "[4]; no ROCK inhibitor, listed as laminin-521", "result": "survived and started to proliferate"}, {"measurement": "adhesion of human ES cells after 1 hour", "setting": "[5]; O3 medium without any additives, without Y-27632, FIG. 6", "result": "roughly the same"}, {"measurement": "spreading of the cells after one hour compared with Matrigel or LN-111", "setting": "[5]; dissociated hES cells, not shown", "result": "clearly better"}]}
